{
  "source": "BindingDB's records for patent US11980598",
  "about": "(Beijing Greatway Pharmaceutical Technology Co., 2024)",
  "target": "T1, 5-hydroxytryptamine receptor 2C (Homo sapiens, UniProt P28335)",
  "T1 sequence (P28335 whole entry)": "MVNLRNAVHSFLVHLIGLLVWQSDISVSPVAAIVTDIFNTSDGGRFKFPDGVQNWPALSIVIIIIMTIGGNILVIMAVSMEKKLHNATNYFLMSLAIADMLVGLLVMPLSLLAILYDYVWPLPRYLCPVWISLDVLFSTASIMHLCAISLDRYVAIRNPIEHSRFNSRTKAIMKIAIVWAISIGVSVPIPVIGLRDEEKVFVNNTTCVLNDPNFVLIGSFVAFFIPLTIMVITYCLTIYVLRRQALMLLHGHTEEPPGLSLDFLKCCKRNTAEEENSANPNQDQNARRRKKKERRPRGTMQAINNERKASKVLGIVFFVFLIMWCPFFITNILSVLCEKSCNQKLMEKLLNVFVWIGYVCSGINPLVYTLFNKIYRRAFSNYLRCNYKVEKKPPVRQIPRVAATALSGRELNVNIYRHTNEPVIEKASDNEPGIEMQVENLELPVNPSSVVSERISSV",
  "test": "5-HT2C Receptor Binding Test",
  "method": "50 μg of the receptor membrane protein 5-HT2C was added to all the tubes. […] All the tubes were added with 40 μL of [3H]-LSD (lysergic acid diethylamide), respectively. […] The filter paper was taken out and dried by baking, and then placed in a scintillation bottle. 1 mL of the scintillation liquid was added, and the radioactive intensity was measured by a liquid scintillation counter",
  "data": [
    {"smiles": "COc1cc2c(CCNC(C)=O)cccc2cc1Cl", "note": "[US11980598, Compound 1]", "values": [
      {"measurement": "IC50", "value": 0.77, "unit": "nM"}
    ]},
    {"smiles": "COc1cc2c(CCNC(C)=O)cccc2cc1F", "note": "[US11980598, Compound 4]", "values": [
      {"measurement": "IC50", "value": 20.8, "unit": "nM"}
    ]}
  ]
}
